Experiments:
CBA × DBA mice = test: Embryo survival in CBA × DBA mice, i.p. dosing during gestation; type: in vivo; conditions: for % Embryo Survival: assessed day 12
Procedure: Female mice of the CBA strain (obtained from Charles River, UK) were crossed with male mice of the DBA strain (obtained from Charles River, UK) and treated i.p. with 3-ethyl-5-[5-(4-ethylpiperazin-1-ylsulphonyl)-2-n-propoxyphenyl]-2-(pyridin-2-yl)methyl-2,6-dihydro-7H-pyrazolo[4,3-d]pyrimidin-7-one at the rate of either 1 mg/kg or 3′mg/kg on days 1 to 8 of gestation. The mice were euthanised on day 12 of gestation and the numbers of viable and non-viable embryos were determined relative to corresponding control mice.
Female mice of the CBA strain (obtained from Charles River, UK) were crossed with male mice of the DBA strain (obtained from Charles River, UK) and treated i.p. with 3-ethyl-5-[5-(4-ethylpiperazin-1-ylsulphonyl)-2-n-propoxyphenyl]-2-(pyridin-2-yl)methyl-2,6-dihydro-7H-pyrazolo[4,3-d]pyrimidin-7-one at the rate of 1 mg/kg on days 1 to 4 or 4 to 8 of gestation. The mice were euthanised on day 12 of gestation and the numbers of viable and non-viable embryos were determined relative to corresponding control mice.

pregnant rats = test: Birthweights of rat pups after s.c. dosing of pregnant rats throughout gestation; type: in vivo; conditions: for embryonic/foetal growth and birthweight (in words, FIG. 1): s.c. daily 0.3, 1 and 5 mg/kg, gestation days 1-21, pregnant rats; for % increase (birthweights of rat pups): pregnant rats n=10
Procedure: To evaluate the effects of cGMP PDE V inhibition on embryonic and foetal growth, 3-ethyl-5-[5-(4-ethylpiperazin-1-ylsulphonyl)-2-n-propoxyphenyl]-2-(pyridin-2-yl)methyl-2,6-dihydro-7H-pyrazolo[4,3-d]pyrimidin- 7-one was administered s.c. daily in an aqueous micelle formulation at the rate of 0.3, 1 and 5 mg/kg to pregnant rats. The results are illustrated in FIG. 1.
A comparative experiment using a similar protocol was carried out using (A) 3-ethyl-5-[5-(4-ethylpiperazin-1-ylsulphonyl)-2-n-propoxyphenyl]-2-(pyridin-2-yl)methyl-2,6-dihydro-7H-pyrazolo[4,3-d]pyrimidin-7-one and the Lilly-ICOS PDE V inhibitor (B) CILIAS/IC-351. The compounds were administered throughout gestation subcutaneously to pregnant rats (n=10) and the birthweights of their corresponding rat pups were measured.

Mini-pigs = test: Model of uterine blood flow and mean arterial blood pressure in mini-pigs; type: in vivo; conditions: intravenous
Excerpt: A model of uterine blood flow was established to assess the effects of PDE V inhibition on uterine flow and mean arterial blood pressure (MAP). Mini-pigs weighing approximately 30 kg were modified surgically. As a means of quantifying real time uterine blood flow a Transoinc blood flow probe was placed around either the left or right uterine artery. Catheters were inserted into a external jugular vein and a carotid artery for blood sampling/administration of compound and measurement of mean arterial blood pressure (MAP) respectively. Test compound was administered intravenously either during oestrous or the luteal phase of the reproductive cycle and the effects of PDE V inhibition on uterine blood flow and MAP were measured. The Y-axis for the two left hand bars is uterine blood flow (ml/min.), and for the two right hand bars is MAP (mmHg).

Friesian cross heifers = test: Intra-vaginal dosing of Friesian cross heifers: plasma progesterone and uterine horn histology; type: in vivo, cattle; conditions: intra-vaginally twice daily, 30 days, uterine horn cross-sections
Procedure: Twenty-seven (27) female Friesian cross heifers, approximately 24 months of age were allocated randomly to three treatment groups control, 50 mg and 250 mg of the PDE V inhibitor administered intra-vaginally twice daily. Oestrous was synchronised using two intramuscular injections of PGF2 alpha (Lutalyse™) administered 11 days apart. The PDE V inhibitor was administered intra-vaginally twice daily from day −3 of oestrus until day 6 of the following oestrus (30 days in total). Blood samples were collected daily, plasma was prepared as soon as possible and stored at −20 DEG C. and then analysed for progesterone. At the completion of the study (ie day 6 of the second oestrous period) the cattle were euthanised and the reproductive tract collected. A cross section of the left and right horns of each uterus was collected and stored in 10% Formalin and then analysed histologically.

[1] = tested on: patients undergoing in vitro fertilisation (IVF) with prior poor endometrial response; conditions: Hum. Reprod., 2000, 15(4), 806-809; cited from earlier work
[2] = 0.3 mg/kg s.c. throughout gestation
[3] = 1 mg/kg s.c. throughout gestation
[4] = 5 mg/kg s.c. throughout gestation

CCCOc1ccc(S(=O)(=O)N2CCN(CC)CC2)cc1-c1nc2c(CC)n(Cc3ccccn3)nc2c(=O)[nH]1 [3-ethyl-5-[5-(4-ethylpiperazin-1-ylsulphonyl)-2-n-propoxyphenyl]-2-(pyridin-2-yl)methyl-2,6-dihydro-7H-pyrazolo[4,3-d]pyrimidin-7-one]
rate of embryo survival (in words) (CBA × DBA mice; days 1-4 or 4-8 of gestation): improved the rate of embryo survival in both cases
rate of embryo survival and maintenance of pregnancy (in words) (CBA × DBA mice; days 1 to 8 of gestation, CBA×DBA mice): improves significantly the rate of embryo survival and the maintenance of pregnancy
embryonic/foetal growth and birthweight (in words, FIG. 1) (pregnant rats): promotes embryonic and/or foetal growth and consequently increases birthweight

CCCOc1ccc(S(=O)(=O)N2CCN(CC)CC2)cc1-c1nc2c(CC)n(Cc3ccccn3)nc2c(=O)[nH]1 [A, 3-ethyl-5-[5-(4-ethylpiperazin-1-ylsulphonyl)-2-n-propoxyphenyl]-2-(pyridin-2-yl)methyl-2,6-dihydro-7H-pyrazolo[4,3-d]pyrimidin-7-one]
% Embryo Survival (CBA × DBA mice; 1 mg/kg i.p. daily, days 1-4 of gestation, control 54): 81%
% Embryo Survival (CBA × DBA mice; 1 mg/kg i.p. daily, days 1-8 of gestation, control 51): 90%
% Embryo Survival (CBA × DBA mice; 1 mg/kg i.p. daily, days 4-8 of gestation, control 54): 70%
% Embryo Survival (CBA × DBA mice; 3 mg/kg i.p. daily, days 1-8 of gestation, control 51): 84%
% increase (birthweights of rat pups) (pregnant rats; [2]): 2%
% increase (birthweights of rat pups) (pregnant rats; [3]): 6%
% increase (birthweights of rat pups) (pregnant rats; [4]): 10%
% increase (birthweights of rat pups) (pregnant rats; 10 mg/kg s.c. throughout gestation): 12%
comparison of effectiveness on birth weights of rat pups (pregnant rats; A versus B, s.c. throughout gestation): more effective than compound B
embryonic/foetal growth and birthweight (in words, FIG. 1) (pregnant rats; listed as 3-ethyl-5-(5-(4-ethylpiperazin-1-ylsulphonyl)-2-n-propoxyphenyl)-2-(pyridin-2-yl)): increases birthweights of rat puts
mean arterial blood pressure (MAP) (FIG. 2) (Mini-pigs): No significant effect on mean arterial blood pressure
uterine blood flow relative to control (FIG. 2) (Mini-pigs): improves significantly uterine blood relative to control animals
endometrial epithelial thickness relative to control (FIG. 5) (Friesian cross heifers): increases endometrial epithelial thickness relative to control animals

CN1CC(=O)N2[C@H](c3ccc4c(c3)OCO4)c3[nH]c4ccccc4c3C[C@@H]2C1=O [B, (6R, 12aR)-2,3,6,7,12,12a-hexahydro-2-methyl-6-(3,4-methylenedioxyphenyl)-pyrazino[2′,1′:6,1]pyrido[3,4-b]indole-1,4-dione, reference compound]
% increase (birthweights of rat pups) (pregnant rats; [2]): 0%
% increase (birthweights of rat pups) (pregnant rats; [3]): 1%
% increase (birthweights of rat pups) (pregnant rats; [4]): 5%

CCCc1nn(C)c2c(=O)[nH]c(-c3cc(S(=O)(=O)N4CCN(C)CC4)ccc3OCC)nc12 [sildenafil, 5-[2-ethoxy-5-(4-methyl-1-piperazinylsulphonyl)phenyl]-1-methyl-3-n-propyl-1,6-dihydro-7H-pyrazolo[4,3-d]pyrimidin-7-one]
uterine artery blood flow and endometrial development [1]: may be effective for improving uterine artery blood flow and endometrial development

Reference: patent US6548508B2, “Use of PDE V inhibitors for improved fecundity in mammals” (Pfizer, Inc., priority 2000, dated 2003)
